The text below walks through data of patent publication US20070225256A1, “COMPOUND” (priority 2004, published 2007).

The conditions of data set [1]: cited from earlier work.
In data set [2] the target is T1, steroid sulphatase (Homo sapiens, UniProt P08842).
T1 sequence (P08842 22-583): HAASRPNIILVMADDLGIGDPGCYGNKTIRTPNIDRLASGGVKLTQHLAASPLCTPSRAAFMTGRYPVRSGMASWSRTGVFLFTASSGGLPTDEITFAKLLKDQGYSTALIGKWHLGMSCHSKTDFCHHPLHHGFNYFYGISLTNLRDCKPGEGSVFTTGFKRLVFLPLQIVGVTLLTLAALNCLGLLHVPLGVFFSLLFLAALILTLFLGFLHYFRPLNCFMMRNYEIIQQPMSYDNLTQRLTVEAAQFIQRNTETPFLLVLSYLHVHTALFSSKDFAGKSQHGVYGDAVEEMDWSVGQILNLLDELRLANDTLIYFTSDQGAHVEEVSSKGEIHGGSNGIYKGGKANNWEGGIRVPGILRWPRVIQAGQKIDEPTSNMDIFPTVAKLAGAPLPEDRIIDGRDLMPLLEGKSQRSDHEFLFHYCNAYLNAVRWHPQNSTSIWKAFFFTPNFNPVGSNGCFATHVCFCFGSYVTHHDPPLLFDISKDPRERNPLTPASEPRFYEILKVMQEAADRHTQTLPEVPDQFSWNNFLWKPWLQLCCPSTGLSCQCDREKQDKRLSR
Conditions: compared with EMATE; cited from earlier work.

Data set [3] deals with MCF-7. The data set can be described thus: Inhibition of MCF-7 cell proliferation. In kind it is cell-based. Particulars: for IC50: read-out: Concentration for 50% inhibition of MCF-7 proliferation. Here is the method: MCF-7 breast cancer cells are seeded into multi-well culture plates at a density of 10^5 cells/well. Cells were allowed to attach and grown until about 30% confluent when they are treated as follows:
Cells are grown for 6 days in growth medium containing the COI with changes of medium/COI every 3 days. At the end of this period cell numbers were counted using a Coulter cell counter.
Inhibition of MCF-7 Cell Proliferation

For data set [4] the following is noted: cited from earlier work. The source holds these as a separate data set.
In data set [5] the target is T2, E1-STS (Homo sapiens, UniProt P08842).
T2 sequence (P08842 22-583): T1 sequence (P08842 22-583)
Set-up: endogenous in cells; host or cells: MCF-7. Particulars: 0.1 nM; cited from earlier work.

The target of data set [6] is T2, E1-STS. Particulars: compared with EMATE; cited from earlier work.

Where two headings read alike, the source gives them in different places.

As to `COc1cc2c(cc1OS(N)(=O)=O)CC[C@@H]1[C@@H]2CC[C@]2(C)C(=O)CC[C@@H]12` [2-methoxyoestrone-3-O-sulphamate], the oestrogenicity result in data set [1] (rat, in vivo) is “devoid of oestrogenicity”. In addition, the “potency as a steroid sulphatase inhibitor” value in data set [2] is on record as “equipotent with EMATE”. As to `CCc1cc2c(cc1OS(N)(=O)=O)CC[C@@H]1[C@@H]2CC[C@]2(C)C(CS(C)(=O)=O)CC[C@@H]12` (some centres unmarked) [Compound 8, 2-Ethyl-3-O-sulfamoyl-17-methanesulfonylmethyl estrone], the “% Inhibition of MCF-7 proliferation at 10 μM” value (shortened to “% Inhibition”) in data set [3] is 79%. Regarding `CCc1cc2c(cc1OS(N)(=O)=O)CC[C@@H]1[C@@H]2CC[C@]2(C)[C@@H](CC)CC[C@@H]12` [Compound 11, 2-Ethyl-3-O-sulfamoyl-17-β-ethyl-17-deoxy estrone], in data set [3], the “% Inhibition” value is reported as 83%. Regarding `CCc1cc2c(cc1OS(N)(=O)=O)CC[C@@H]1[C@@H]2CC[C@]2(C)[C@@H](CCF)CC[C@@H]12` [Compound 14, 2-Ethyl-3-O-sulfamoyl-17β-(2-fluoro-ethyl)-17-deoxy estrone], in data set [3], the “% Inhibition” value worked out at 89%. With `CCc1cc2c(cc1OS(N)(=O)=O)CC[C@@H]1[C@@H]2CC[C@]2(C)[C@@H](C[N+](=O)[O-])CC[C@@H]12` [Compound 23, 2-Ethyl-3-O-sulfamoyl-17β-nitromethyl-17-deoxy estrone], the “% Inhibition” value in data set [3] is reported as under 50%. The same measure, in the same setting: in the case of `CCc1cc2c(cc1OS(N)(=O)=O)CC[C@@H]1[C@@H]2CC[C@]2(C)[C@@H](CC(C)=O)CC[C@@H]12` [Compound 29, 2-Ethyl-3-O-sulfamoyl-17β-(2-oxopropyl) estrone] it was 69%. Turning to `COc1cc2c(cc1O)CCC1C2CC[C@@]2(C)C1CC[C@@H]2OC(N)=O` (some centres unmarked) [Compound 57, 2-Methoxy-estradiol-17-carbamate], in data set [3] (Homo sapiens, MCF7), the IC50 was 44 µM. Turning to `COc1cc2c(cc1OS(N)(=O)=O)CC[C@@H]1[C@@H]2CC[C@]2(C)[C@@H](OC(N)=O)CC[C@@H]12` [Compound 58, 2-Methoxy-3-O-sulfamoyl estradiol-17-carbamate], the IC50 in data set [3] is 1.8 µM. For `C[C@]12CC[C@@H]3c4ccc(OS(=O)(=O)O)cc4CC[C@H]3[C@@H]1CCC2=O` [Compound E1S, oestrone sulphate], in data set [4], the half-life in blood is 10 to 12 h. Regarding `CC12CCC3c4ccc(OS(N)(=O)=O)cc4CCC3C1CCC2=O` (centres unmarked) [EMATE, oestrone-3-sulphamate], the “oral uterotrophic activity relative to estradiol” value in data set [1] (rats, oral) is reported as 100 times. In addition, in data set [5], the “inhibition of E1-STS activity in intact MCF-7 cells” value is reported as “more than 99%”. For oestrone-3-N-sulphamate, the E1-STS inactivation entry in data set [6] is on record as “weaker non-time-dependent inactivators”. For the molecule oestrone-3-S-sulphamate, in data set [6], the E1-STS inactivation entry is “weaker non-time-dependent inactivators”.
